Measured values taken from PubChem BioAssay (NCI).
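The compound was tested at five concentrations on cells cultured in 96-well plates, with a 48-hour exposure period. GI50 is the concentration that inhibits growth by half. TGI marks complete inhibition of growth.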

Tests used:
Test in all cases: DTP human tumour cell line panel, 48 h
MCF7 breast = tested on: MCF7 breast
NCI-H522 lung = tested on: NCI-H522 lung
SN12C renal = tested on: SN12C renal
MOLT-4 leukemia = tested on: MOLT-4 leukemia
SF-268 CNS = tested on: SF-268 CNS
HCC-2998 colon = tested on: HCC-2998 colon
NCI-H226 lung = tested on: NCI-H226 lung
A498 renal = tested on: A498 renal
MALME-3M melanoma = tested on: MALME-3M melanoma
DU-145 prostate = tested on: DU-145 prostate
OVCAR-4 ovarian = tested on: OVCAR-4 ovarian
U251 CNS = tested on: U251 CNS
HS 578T breast = tested on: HS 578T breast
CCRF-CEM leukemia = tested on: CCRF-CEM leukemia
A549 NSCLC = tested on: A549 NSCLC
CAKI-1 renal = tested on: CAKI-1 renal
SF-295 CNS = tested on: SF-295 CNS
EKVX NSCLC = tested on: EKVX NSCLC
SK-MEL-5 melanoma = tested on: SK-MEL-5 melanoma
LOX IMVI melanoma = tested on: LOX IMVI melanoma
OVCAR-8 ovarian = tested on: OVCAR-8 ovarian
PC-3 prostate = tested on: PC-3 prostate
SF-539 CNS = tested on: SF-539 CNS
T-47D breast = tested on: T-47D breast
SK-OV-3 ovarian = tested on: SK-OV-3 ovarian
HCT-15 colon = tested on: HCT-15 colon
OVCAR-5 ovarian = tested on: OVCAR-5 ovarian
NCI-H460 lung = tested on: NCI-H460 lung
OVCAR-3 ovarian = tested on: OVCAR-3 ovarian
KM12 colon = tested on: KM12 colon
UACC-257 melanoma = tested on: UACC-257 melanoma
RXF 393 renal = tested on: RXF 393 renal
RPMI-8226 leukemia = tested on: RPMI-8226 leukemia
786-0 renal = tested on: 786-0 renal
COLO 205 colon = tested on: COLO 205 colon
HT29 colon = tested on: HT29 colon
K-562 leukemia = tested on: K-562 leukemia
HL-60(TB) leukemia = tested on: HL-60(TB) leukemia
MDA-MB-231 breast = tested on: MDA-MB-231 breast
BT-549 breast = tested on: BT-549 breast
MDA-MB-435 = tested on: MDA-MB-435
M14 melanoma = tested on: M14 melanoma
SK-MEL-2 melanoma = tested on: SK-MEL-2 melanoma
NCI/ADR-RES ovarian = tested on: NCI/ADR-RES ovarian
UACC-62 melanoma = tested on: UACC-62 melanoma
IGROV1 ovarian = tested on: IGROV1 ovarian
SNB-75 CNS = tested on: SNB-75 CNS
MDA-MB-468 breast = tested on: MDA-MB-468 breast
NCI-H23 lung = tested on: NCI-H23 lung
SNB-19 CNS = tested on: SNB-19 CNS
SK-MEL-28 melanoma = tested on: SK-MEL-28 melanoma
HOP-92 NSCLC = tested on: HOP-92 NSCLC
HOP-62 NSCLC = tested on: HOP-62 NSCLC
SW-620 colon = tested on: SW-620 colon

## CCCSc1nc(Nc2ccc(S(N)(=O)=O)cc2)c(C#N)c(-c2ccc(Cl)cc2)n1
MCF7 breast
  GI50: 24.3 µM
  TGI: > 100 µM
NCI-H522 lung
  GI50: 16.4 µM
  TGI: > 100 µM
SN12C renal
  GI50: 2.39 µM
  TGI: 7.5 µM
MOLT-4 leukemia
  GI50: 8.11 µM
  TGI: > 100 µM
SF-268 CNS
  GI50: 9 µM
  TGI: > 100 µM
HCC-2998 colon
  GI50: 4.2 µM
  TGI: > 100 µM
NCI-H226 lung
  GI50: 2.6 µM
  TGI: 8.66 µM
A498 renal
  GI50: 1.78 µM
  TGI: 4.31 µM
MALME-3M melanoma
  GI50: 3.07 µM
  TGI: 17.9 µM
DU-145 prostate
  GI50: 12.2 µM
  TGI: 97.1 µM
OVCAR-4 ovarian
  GI50: 2.23 µM
  TGI: 5.65 µM
U251 CNS
  GI50: 2.42 µM
  TGI: 7.81 µM
HS 578T breast
  GI50: 2.59 µM
  TGI: 8.09 µM
CCRF-CEM leukemia
  GI50: > 100 µM
  TGI: > 100 µM
A549 NSCLC
  GI50: 3.62 µM
  TGI: > 100 µM
CAKI-1 renal
  GI50: 1.94 µM
  TGI: 4.8 µM
SF-295 CNS
  GI50: 2.1 µM
  TGI: 4.94 µM
EKVX NSCLC
  GI50: 9.38 µM
  TGI: > 100 µM
SK-MEL-5 melanoma
  GI50: 6.96 µM
  TGI: > 100 µM
LOX IMVI melanoma
  GI50: 1.82 µM
  TGI: 3.55 µM
OVCAR-8 ovarian
  GI50: 3.42 µM
  TGI: 16.1 µM
PC-3 prostate
  GI50: 13.4 µM
  TGI: > 100 µM
SF-539 CNS
  GI50: 2.57 µM
  TGI: 10 µM
T-47D breast
  GI50: > 100 µM
  TGI: > 100 µM
SK-OV-3 ovarian
  GI50: 4.11 µM
  TGI: 67.6 µM
HCT-15 colon
  GI50: 2.92 µM
  TGI: > 100 µM
OVCAR-5 ovarian
  GI50: 8.78 µM
  TGI: > 100 µM
NCI-H460 lung
  GI50: 3.85 µM
  TGI: 22.4 µM
OVCAR-3 ovarian
  GI50: 3.63 µM
  TGI: 19.6 µM
KM12 colon
  GI50: 4.17 µM
  TGI: > 100 µM
UACC-257 melanoma
  GI50: 28.5 µM
  TGI: > 100 µM
RXF 393 renal
  GI50: 2 µM
  TGI: 4.63 µM
RPMI-8226 leukemia
  GI50: 3.14 µM
  TGI: > 100 µM
786-0 renal
  GI50: 1.98 µM
  TGI: 4.06 µM
COLO 205 colon
  GI50: 9.54 µM
  TGI: > 100 µM
HT29 colon
  GI50: 6.41 µM
  TGI: > 100 µM
K-562 leukemia
  GI50: 2.85 µM
  TGI: > 100 µM
HL-60(TB) leukemia
  GI50: > 100 µM
  TGI: > 100 µM
MDA-MB-231 breast
  GI50: 2.83 µM
  TGI: 8.9 µM
BT-549 breast
  GI50: 30.8 µM
  TGI: > 100 µM
MDA-MB-435
  GI50: 7.9 µM
  TGI: > 100 µM
M14 melanoma
  GI50: 3.48 µM
  TGI: 25.3 µM
SK-MEL-2 melanoma
  GI50: 13.8 µM
  TGI: > 100 µM
NCI/ADR-RES ovarian
  GI50: 4.89 µM
  TGI: 90.5 µM
UACC-62 melanoma
  GI50: 5.11 µM
  TGI: > 100 µM
IGROV1 ovarian
  GI50: 6.03 µM
  TGI: > 100 µM
SNB-75 CNS
  GI50: 2.03 µM
  TGI: 9.63 µM
MDA-MB-468 breast
  GI50: 4.49 µM
  TGI: 37.1 µM
NCI-H23 lung
  GI50: 9.53 µM
  TGI: 43 µM
SNB-19 CNS
  GI50: 4.04 µM
  TGI: 20.9 µM
SK-MEL-28 melanoma
  GI50: 36.1 µM
  TGI: > 100 µM
HOP-92 NSCLC
  GI50: 1.39 µM
  TGI: 3.73 µM
HOP-62 NSCLC
  GI50: 2.35 µM
  TGI: 5.67 µM
SW-620 colon
  GI50: 4.67 µM
  TGI: 29.6 µM
